Legend:
[1] = system: CAR-T cells induced death of RAJI-GLuc cells; test: Effect of drugs on CAR-T cell-induced death of RAJI-GLuc cells (GLuc assay); assay type: cell-based, human; settings: for CAR-T cell induced cell death: FMC63 and CD19MM CAR-T cells, Imatinib 50 nM and 500 nM, Nilotinib 10 nM and 100 nM, Axitinib; for CAR-T cells induced death of RAJI-pLenti-GLuc cells / CAR-T cells induced cell death / CAR-T cell-induced death of RAJI-pLenti-GLuc cells: CD19Bu12 CAR-T cells; for CAR-T cell-induced death of RAJI-pLenti-GLuc cells: versus media alone
Lck = Lck (Homo sapiens, UniProt P06239); settings: Lck versus Fyn; cited from earlier work
Sequence of Lck (P06239 whole entry, species assumed): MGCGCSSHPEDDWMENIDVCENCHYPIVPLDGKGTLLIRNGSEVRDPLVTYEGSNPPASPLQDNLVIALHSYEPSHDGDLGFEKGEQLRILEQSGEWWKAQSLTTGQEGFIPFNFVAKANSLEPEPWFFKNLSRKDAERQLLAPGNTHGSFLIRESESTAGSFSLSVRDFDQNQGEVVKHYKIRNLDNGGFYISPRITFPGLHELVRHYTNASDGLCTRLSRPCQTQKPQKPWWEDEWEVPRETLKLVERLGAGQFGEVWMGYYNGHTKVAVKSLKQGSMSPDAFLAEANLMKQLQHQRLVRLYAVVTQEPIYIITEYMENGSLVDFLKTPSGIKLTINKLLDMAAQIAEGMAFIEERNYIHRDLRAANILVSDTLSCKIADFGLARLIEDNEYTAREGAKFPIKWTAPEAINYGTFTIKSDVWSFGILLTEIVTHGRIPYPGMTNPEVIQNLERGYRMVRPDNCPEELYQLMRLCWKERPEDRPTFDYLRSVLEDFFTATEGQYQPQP

[2] = system: Blinatumomab induced cell death of RAJI-GLuc cells mediated by T cells; test: Blinatumomab-induced, T cell-mediated death of RAJI-GLuc cells and its block by drugs (GLuc assay); assay type: cell-based, human
[3] = system: target cells expressing their respective target antigen; test: Jurkat-NFAT-GFP assay, co-culture with target cells expressing the respective target antigen (Table 28); settings: Jurkat-NFAT-GFP cells expressing the CAR; cell line(s) giving greater % GFP positive cells than parental
NF-κB = NF-κB luciferase reporter assay in 293FT cells; assay type: cell-based; settings: upon treatment with AP20187, versus untreated
Protocol: NF-κB reporter assay was carried out essentially as described (Chaudhary et al., Oncogene 18:5738-46, 1999). The indicated constructs were transiently transfected in 293FT cells along with a luciferase reporter construct driven by 4 copies of NF-κB binding site and a RSV-LacZ reporter construct. Cells were left untreated or treated with AP20187, which dimerizes the FKBP domains, resulting in activation of K13 signaling. Approximately 24 hr later, cells were lysed and NF-κB-Luc and LacZ activities measured in cell lysates. NF-κB-Luc activity was normalized relative to LacZ activity to control for difference in transfection efficiency. […] Thus, activity of K13 and Tax can be controlled by fusion with FKBP and subsequent administration of AP20187 when they are expressed alone or as part of CAR constructs.
It would be useful to have novel mutants of K13 with varying levels of NF-κB activity for the purpose of adoptive cellular therapy and other applications. Site-directed mutagenesis was conducted using Quickchange site-directed kit (Stratagene) to generate several point mutants of K13 in which the different amino acids of K13 (SEQ ID NO:2629) were mutated. For example, in the mutant K19A the amino acid Lysine at position 19 is mutated to alanine. […] Approximately 24 hr later, cells were lysed and NF-κB-Luc and LacZ activities measured in cell lysates. […]

[4] = at the indicated concentrations

Compound: Cc1cn(-c2cc(NC(=O)c3ccc(C)c(Nc4nccc(-c5cccnc5)n4)c3)cc(C(F)(F)F)c2)cn1 [Nilotinib]
- CAR-T cell induced cell death [1]: no effect

Compound: COc1cc(-c2nn([C@H]3CC[C@H](N4CCN(C(C)=O)CC4)CC3)c3ncnc(N)c23)ccc1NC(=O)c1cc2ccccc2n1C [A-770041]
- CAR-T cells induced death of RAJI-pLenti-GLuc cells ([1]; 100 nM and 200 nM): near complete inhibition
- selective against Fyn (Lck): 300 fold
- cell death induced by combination of Blinatumomab with T cells ([2]; 100 nM): partially blocked
- cell death induced by combination of Blinatumomab with T cells ([2]; 200 nM): complete inhibition

Compound: CN1CCN(CCOc2cc(OC3CCOCC3)c3c(Nc4c(Cl)ccc5c4OCO5)ncnc3c2)CC1 [Saracatinib]
- CAR-T cells induced death of RAJI-pLenti-GLuc cells ([1]; concentration not given): no significant effect

Compound: CNC(=O)c1ccccc1Sc1ccc2c(/C=C/c3ccccn3)n[nH]c2c1 [Axitinib]
- CAR-T cell induced cell death [1]: no effect

Compound: CC(C)c1cc(C(C)C)c(CC(=O)NS(=O)(=O)Oc2c(C(C)C)cccc2C(C)C)c(C(C)C)c1 [Avasimibe]
- CAR-T cells induced cell death ([1]; 100 nM): no significant effect
- CAR-T cells induced cell death ([1]; 1 μM): completely blocked
- Blinatumomab induced cell death mediated by T cells ([2]; 1 μM): blocked

Compound: Cc1ccc(NC(=O)c2ccc(CN3CCN(C)CC3)cc2)cc1Nc1nccc(-c2cccnc2)n1 [Imatinib]
- CAR-induced cell death ([1]; CD19MM CAR-T cells, E:T 5:1, 4 h, indicated concentrations): no effect
- CAR-T cell induced cell death [1]: no effect

Compound: CD8SP-GD3-KM-641-(vL-vH)-Myc-z-P2A-K13-Flag-T2A-PAC(051016-D04)[SEQ ID NO: 1065]
- Positive Cell Line on co-culture assay [3]: MEL624

Compound: CD8SP-CD22-m971-(vL-vH)-Myc-BBz-T2A-PAC(091515-A02)[SEQ ID NO: 1519]
- Positive Cell Line on co-culture assay [3]: RAJI, NALM6

Compound: FKBPX2-K13: K13 in fusion with two copies of FKBP dimerization domain
- K13- and HTLV2-Tax RS mutant-induced NF-κB-Luc activity (NF-κB): increase

Compound: COc1cc(Nc2ncc3c(n2)-c2ccc(Cl)cc2C(c2c(F)cccc2OC)=NC3)ccc1C(=O)O [Alisertib]
- CAR-T cell-induced death of RAJI-pLenti-GLuc cells [1]: mild to modest inhibition
- Blinatumomab induced cell death mediated by T cells [2, 4]: only a minimal effect

Compound: COc1cc(Nc2ncc(F)c(Nc3ccc4c(n3)N(COP(=O)(O)O)C(=O)C(C)(C)O4)n2)cc(OC)c1OC [Fosatamatinib]
- CAR-T cell-induced death of RAJI-pLenti-GLuc cells [1]: mild to modest inhibition
- Blinatumomab induced cell death mediated by T cells [2, 4]: only a minimal effect

Reference: patent publication US20240166755A1, “CHIMERIC ANTIGEN RECEPTORS TARGETING CANCER” (University of Southern California, priority 2016, published 2024)
